Experimental data published in PubChem BioAssay (NCI).
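Step 1: Grow cells in 96-well plates. Step 2: Expose to compound for 48 hours at 5 concentrations. Step 3: Interpolate endpoints linearly; if unreached, use highest concentration. GI50 = concentration required for 50% inhibition of growth. Definition used: TGI = concentration required for complete inhibition of growth.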

Experiments:
Assay in all cases: inhibition of tumour cell growth, NCI panel, 48 h
[1] = test system: 786-0 renal
[2] = test system: A498 renal
[3] = test system: A549 NSCLC
[4] = test system: ACHN renal
[5] = test system: BT-549 breast
[6] = test system: CAKI-1 renal
[7] = test system: CCRF-CEM leukemia
[8] = test system: COLO 205 colon
[9] = test system: DU-145 prostate
[10] = test system: EKVX NSCLC
[11] = test system: HCC-2998 colon
[12] = test system: HCT-116 colon
[13] = test system: HCT-15 colon
[14] = test system: HL-60(TB) leukemia
[15] = test system: HOP-62 NSCLC
[16] = test system: HOP-92 NSCLC
[17] = test system: HS 578T breast
[18] = test system: HT29 colon
[19] = test system: IGROV1 ovarian
[20] = test system: K-562 leukemia
[21] = test system: KM12 colon
[22] = test system: LOX IMVI melanoma
[23] = test system: M14 melanoma
[24] = test system: MALME-3M melanoma
[25] = test system: MDA-MB-231 breast
[26] = test system: MDA-MB-435
[27] = test system: MOLT-4 leukemia
[28] = test system: NCI-H226 lung

## C=C1CC2(OC1=O)C(=O)N(C)c1ccc(I)cc12 (centres undefined)
[1]
  GI50: 1650 nM
  TGI: 3180 nM
[2]
  GI50: 2500 nM
  TGI: 10200 nM
[3]
  GI50: 6230 nM
  TGI: 22500 nM
[4]
  GI50: 624 nM
  TGI: 1830 nM
[5]
  GI50: 1560 nM
  TGI: 4190 nM
[6]
  GI50: 836 nM
  TGI: 2790 nM
[7]
  GI50: 1060 nM
  TGI: > 100000 nM
[8]
  GI50: 841 nM
  TGI: 2170 nM
[9]
  GI50: 941 nM
  TGI: 2270 nM
[10]
  GI50: 1660 nM
  TGI: 8150 nM
[11]
  GI50: 2690 nM
  TGI: 7040 nM
[12]
  GI50: 348 nM
  TGI: 1420 nM
[13]
  GI50: 583 nM
  TGI: 1970 nM
[14]
  GI50: 337 nM
  TGI: 1540 nM
[15]
  GI50: 12900 nM
  TGI: 27700 nM
[16]
  GI50: 659 nM
  TGI: 2690 nM
[17]
  GI50: 3260 nM
  TGI: > 22700 nM
[18]
  GI50: 1030 nM
[19]
  GI50: 1230 nM
  TGI: 4560 nM
[20]
  GI50: 1310 nM
  TGI: > 23700 nM
[21]
  GI50: 3370 nM
  TGI: 8550 nM
[22]
  GI50: 1140 nM
  TGI: 2520 nM
[23]
  GI50: 1490 nM
  TGI: 3030 nM
[24]
  GI50: 272 nM
  TGI: 1930 nM
[25]
  GI50: 1810 nM
  TGI: 5310 nM
[26]
  GI50: 1570 nM
  TGI: 5490 nM
[27]
  GI50: 548 nM
  TGI: 3450 nM
[28]
  GI50: 2310 nM
